According to ChEMBL document CHEMBL2203087, “Analogue-based design, synthesis and docking of non-steroidal anti-inflammatory agents. Part 2: methyl sulfanyl/methyl sulfonyl substituted 2,3-diaryl-2,3-dihydro-1H-quinazolin-4-ones” (Bioorg Med Chem, 2012):
Calls of active or inactive are those of the source. No cut-off for these calls is given here.

Legend:
[1] = test system: Rattus norvegicus; test: Antiinflammatory activity in rat assessed as inhibition of carrageenan-induced paw edema at 50 mg/kg, po measured at 90 mins after carrageenan challenge by plethysmographic analysis; assay type: functional; conditions: 1.5 h
[2] = test system: Rattus norvegicus; test: Antiinflammatory activity in rat assessed as inhibition of carrageenan-induced paw edema at 50 mg/kg, po measured at 360 mins after carrageenan challenge by plethysmographic analysis; assay type: functional; conditions: 6 h
[3] = test system: Rattus norvegicus; test: Antiinflammatory activity in rat assessed as inhibition of carrageenan-induced paw edema at 50 mg/kg, po measured at 180 mins after carrageenan challenge by plethysmographic analysis; assay type: functional; conditions: 3 h
[4] = test system: Rattus norvegicus; test: Antiinflammatory activity in rat assessed as inhibition of carrageenan-induced paw edema at 50 mg/kg, po measured at 270 mins after carrageenan challenge by plethysmographic analysis; assay type: functional; conditions: 4.5 h
[5] = target: T1, Prostaglandin G/H synthase 1 (Ovis aries) (UniProt P05979); test: Inhibition of ovine COX1 peroxidase activity assessed as TMPD oxidation at 20 uM by colorimetric analysis
T1 sequence (whole entry): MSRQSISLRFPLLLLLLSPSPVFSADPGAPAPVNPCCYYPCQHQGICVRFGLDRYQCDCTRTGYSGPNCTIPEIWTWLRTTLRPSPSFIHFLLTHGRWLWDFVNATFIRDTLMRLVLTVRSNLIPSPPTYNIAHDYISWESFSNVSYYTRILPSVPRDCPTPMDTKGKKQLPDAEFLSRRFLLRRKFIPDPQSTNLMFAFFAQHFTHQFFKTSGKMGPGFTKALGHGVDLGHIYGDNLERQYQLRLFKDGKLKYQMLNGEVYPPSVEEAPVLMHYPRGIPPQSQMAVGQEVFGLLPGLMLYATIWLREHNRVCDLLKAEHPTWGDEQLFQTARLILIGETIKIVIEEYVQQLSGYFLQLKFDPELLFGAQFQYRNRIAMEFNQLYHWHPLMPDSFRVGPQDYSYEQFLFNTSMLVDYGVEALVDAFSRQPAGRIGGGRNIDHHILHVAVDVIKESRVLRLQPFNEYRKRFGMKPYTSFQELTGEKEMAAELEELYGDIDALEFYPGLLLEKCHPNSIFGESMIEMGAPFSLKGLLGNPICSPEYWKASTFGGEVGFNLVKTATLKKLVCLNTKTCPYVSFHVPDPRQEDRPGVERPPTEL

[6] = species on record: Ovis aries; test: Selectivity ratio of ovine COX1 to ovine COX2 at 20 uM

CSc1ccc(C2Nc3ccccc3C(=O)N2c2ccccc2F)cc1 (configuration not stated)
inhibition in vivo at 50 mg/kg [1]: 33%
inhibition in vivo at 50 mg/kg [2]: 41%
inhibition in vivo at 50 mg/kg [3]: 37%
inhibition in vivo at 50 mg/kg [4]: 39%

CSc1ccc(C2Nc3ccccc3C(=O)N2c2ccc(F)cc2)cc1 (configuration not stated)
inhibition in vivo at 50 mg/kg [1]: 32%
inhibition in vivo at 50 mg/kg [2]: 44%
inhibition in vivo at 50 mg/kg [3]: 39%
inhibition in vivo at 50 mg/kg [4]: 42%

Cc1ccc(N2C(=O)c3ccccc3NC2c2ccc(S(C)(=O)=O)cc2)cc1 (configuration not stated)
inhibition in vivo at 50 mg/kg [1]: 34%
inhibition [5]: inactive
inhibition in vivo at 50 mg/kg [2]: 40%
inhibition in vivo at 50 mg/kg [3]: 35%
inhibition in vivo at 50 mg/kg [4]: 39%
Selectivity ratio [6]: > 0.01

CS(=O)(=O)c1ccc(C2Nc3ccccc3C(=O)N2c2ccccc2)cc1 (configuration not stated)
inhibition in vivo at 50 mg/kg [1]: 31%
inhibition [5]: 49%
inhibition in vivo at 50 mg/kg [2]: 40%
inhibition in vivo at 50 mg/kg [3]: 35%
inhibition in vivo at 50 mg/kg [4]: 38%
Selectivity ratio [6]: 0.742

COc1ccc(N2C(=O)c3ccccc3NC2c2ccc(S(C)(=O)=O)cc2)cc1 (configuration not stated)
inhibition in vivo at 50 mg/kg [1]: 39%
inhibition [5]: 41%
inhibition in vivo at 50 mg/kg [2]: 49%
inhibition in vivo at 50 mg/kg [3]: 43%
inhibition in vivo at 50 mg/kg [4]: 47%
Selectivity ratio [6]: 0.577

CSc1ccc(C2Nc3ccccc3C(=O)N2c2ccccc2)cc1 (configuration not stated)
inhibition in vivo at 50 mg/kg [1]: 30%
inhibition in vivo at 50 mg/kg [2]: 39%
inhibition in vivo at 50 mg/kg [3]: 34%
inhibition in vivo at 50 mg/kg [4]: 37%

CS(=O)(=O)c1ccc(C2Nc3ccccc3C(=O)N2c2ccc(F)cc2)cc1 (configuration not stated)
inhibition in vivo at 50 mg/kg [1]: 38%
inhibition [5]: inactive
inhibition in vivo at 50 mg/kg [2]: 48%
inhibition in vivo at 50 mg/kg [3]: 43%
inhibition in vivo at 50 mg/kg [4]: 45%
Selectivity ratio [6]: > 0.001

CSc1ccc(C2Nc3ccccc3C(=O)N2c2ccc(Cl)cc2)cc1 (configuration not stated)
inhibition in vivo at 50 mg/kg [1]: 38%
inhibition [5]: 5%
inhibition in vivo at 50 mg/kg [2]: 47%
inhibition in vivo at 50 mg/kg [3]: 41%
inhibition in vivo at 50 mg/kg [4]: 46%
Selectivity ratio [6]: 0.055

CSc1ccc(C2Nc3ccccc3C(=O)N2c2ccc(C)cc2)cc1 (configuration not stated)
inhibition in vivo at 50 mg/kg [1]: 30%
inhibition in vivo at 50 mg/kg [2]: 39%
inhibition in vivo at 50 mg/kg [3]: 34%
inhibition in vivo at 50 mg/kg [4]: 38%

CS(=O)(=O)c1ccc(C2Nc3ccccc3C(=O)N2c2ccccc2F)cc1 (configuration not stated)
inhibition in vivo at 50 mg/kg [1]: 36%
inhibition [5]: 15%
inhibition in vivo at 50 mg/kg [2]: 44%
inhibition in vivo at 50 mg/kg [3]: 39%
inhibition in vivo at 50 mg/kg [4]: 42%
Selectivity ratio [6]: 0.278

COc1ccc(N2C(=O)c3ccccc3NC2c2ccc(SC)cc2)cc1 (configuration not stated)
inhibition in vivo at 50 mg/kg [1]: 33%
inhibition in vivo at 50 mg/kg [2]: 40%
inhibition in vivo at 50 mg/kg [3]: 35%
inhibition in vivo at 50 mg/kg [4]: 38%

CS(=O)(=O)c1ccc(C2Nc3ccccc3C(=O)N2c2ccc(Cl)cc2)cc1 (configuration not stated)
inhibition in vivo at 50 mg/kg [1]: 37%
inhibition [5]: inactive
inhibition in vivo at 50 mg/kg [2]: 51%
inhibition in vivo at 50 mg/kg [3]: 42%
inhibition in vivo at 50 mg/kg [4]: 46%
Selectivity ratio [6]: > 0.001
